Reference: PMC10377586 (Biomolecules, 2023)

Legend:
DPPH antioxidant assay = format: physicochemical; details: compound at 50 µM
Text: The 2,2-diphenyl-1-picrylhydrazyl (DPPH) assay was used to determine the antioxidant properties of selected compounds using ascorbic acid, trolox, and quercetin as references. […] From a structural point of view, 21 and 22 share a common pyrimido[2,1-f]purinedione core with propyl or butyl substituents at the N1- and N3-position. Compounds 11i and 11l, containing hexyl or phenoxyethyl as N7-substituents, were the only structures in the groups of bicyclic xanthine derivatives that lacked antioxidant activity in the DPPH assay.
Antioxidant properties of considered structures were evaluated in DPPH test. The assay utilizes a stable free radical 2,2-diphenyl-1-picrylhydrazyl (DPPH). DPPH has a deep violet color in solution and strong absorption band at 520 nm. The antioxidant activity of the tested compounds was defined by their ability to induce the formation of the reduced form of DPPH. Upon reduction, DPPH color turned pale yellow, which manifested by decreased sample absorption at 520 nm and was measured in conducted experiments using EnSpire microplate reader (PerkinElmer). Antioxidant activity of xanthine derivatives and reference compounds was tested in triplicate at 50 µM concentration and normalized to the activity of reference radical scavenger—quercetin.
Figure 2 Antioxidant properties of xanthine derivatives evaluated in the DPPH test. All compounds were tested at 50 µM concentration. Results were normalized to the antioxidant activity measured for quercetin. ASC, ascorbic acid; TLX, trolox; QCT, quercetin.

rat A2A (rA2A) ARs = biological target: T1, rat A2A (rA2A) ARs (Rattus norvegicus, UniProt P30543); experiment: Radioligand binding [3H]MSX-2, rat brain striatal membranes; details: read-out: rA2A [3H]MSX-2 Ki ± SEM
T1 construct: rat brain striatal membrane preparations for A2A AR assays; tissue Pel Freez; host or cells: rat brain striatum membranes
T1 sequence (P30543 whole entry): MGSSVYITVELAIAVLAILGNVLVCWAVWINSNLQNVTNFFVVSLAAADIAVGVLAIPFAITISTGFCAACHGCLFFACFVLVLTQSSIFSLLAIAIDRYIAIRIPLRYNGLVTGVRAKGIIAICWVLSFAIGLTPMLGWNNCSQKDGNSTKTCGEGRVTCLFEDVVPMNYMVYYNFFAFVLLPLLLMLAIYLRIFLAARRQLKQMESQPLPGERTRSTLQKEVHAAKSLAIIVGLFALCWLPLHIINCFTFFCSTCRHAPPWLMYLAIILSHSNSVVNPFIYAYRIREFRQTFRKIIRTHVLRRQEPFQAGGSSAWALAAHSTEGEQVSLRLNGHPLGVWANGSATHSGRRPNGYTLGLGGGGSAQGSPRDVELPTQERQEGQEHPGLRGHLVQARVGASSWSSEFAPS
Protocol: (§1) The final compounds were tested in radioligand binding assays to evaluate their affinity for all four ARs subtypes (see Table 2). Rat brain cortical membrane preparations were used as a source of rat A1 (rA1) ARs, and rat brain striatal membrane preparations served as a source of rat A2A (rA2A) ARs. For A2B- and A3AR assays, membrane preparations of Chinese hamster ovary (CHO) cells recombinantly expressing either human A2B (hA2B) or human A3 (hA3) ARs were employed.
(§2) Adenosine receptor radioligand binding assays were performed as previously described using rat brain cortical membrane preparations for A1 and rat brain striatal membrane preparations for A2A AR assays. Frozen rat brains (unstripped) were obtained from Pel Freez, Rogers, AR, USA. For assays at human AR subtypes, cell membranes of CHO cells recombinantly expressing the respective receptor were used. The following compounds were employed as radioligands: A1: [^3H]2-chloro-N^6-cyclopentyladenosine ([^3H]CCPA); A2A: [^3H]3-(3-hydroxypropyl)-7-methyl-8-(m-methoxystyryl)-1-propargylxanthine ([^3H]MSX-2); A2B: [^3H]8-(4-(4-(4-chlorophenyl)piperazine-1-sulfonyl)phenyl)-1-propylxanthine ([^3H]PSB-603); A3: [^3H]phenyl-8-ethyl-4-methyl-(8R)-4,5,7,8-tetrahydro-1H-imidazo[2,1-i]purine-5-one ([^3H]PSB-11). Initially, a single high concentration of compound was tested (1 µM). For potent compounds, full concentration–inhibition curves were determined using six to ten different concentrations of test compound spanning three orders of magnitude. At least three independent experiments were performed. Data were analyzed using GraphPad PRISM program version 4.0 or higher (Graph Pad, San Diego, CA, USA).

human A2B (hA2B) ARs = biological target: T2, human A2B (hA2B) ARs (Homo sapiens, UniProt P29275); experiment: Radioligand binding [3H]PSB-603, CHO cell membranes; details: for Ki: CHO cell membranes, read-out: hA2B [3H]PSB-603 Ki ± SEM; for inhibition at 1 µM: read-out: hA2B [3H]PSB-603 % inhibition ± SEM at 1 µM
T2 construct: expressed in transfected cells; host or cells: CHO cells (membranes)
T2 sequence (P29275 1-332): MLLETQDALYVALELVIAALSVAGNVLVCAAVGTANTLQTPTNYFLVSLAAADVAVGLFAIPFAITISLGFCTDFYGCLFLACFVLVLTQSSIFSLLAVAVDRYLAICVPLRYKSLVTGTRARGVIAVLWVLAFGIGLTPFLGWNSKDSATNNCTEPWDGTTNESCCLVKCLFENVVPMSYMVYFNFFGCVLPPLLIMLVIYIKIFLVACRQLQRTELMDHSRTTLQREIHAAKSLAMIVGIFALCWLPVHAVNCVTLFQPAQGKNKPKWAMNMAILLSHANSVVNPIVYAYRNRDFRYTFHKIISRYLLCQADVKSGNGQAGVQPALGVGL
Protocol: as §1, §2

human MAO-A = biological target: T3, human MAO-A (Homo sapiens, UniProt P21397); experiment: Amplex Red monoamine oxidase assay, MAO-A; format: biochemical; details: for IC50: human recombinant MAO-A, read-out: MAO-A IC50 ± SEM; for inhibition at 1 µM: read-out: MAO-A % Inhibition ± SEM at 1 µM
T3 construct: purchased Sigma Aldrich M7316
T3 sequence (P21397 1-527): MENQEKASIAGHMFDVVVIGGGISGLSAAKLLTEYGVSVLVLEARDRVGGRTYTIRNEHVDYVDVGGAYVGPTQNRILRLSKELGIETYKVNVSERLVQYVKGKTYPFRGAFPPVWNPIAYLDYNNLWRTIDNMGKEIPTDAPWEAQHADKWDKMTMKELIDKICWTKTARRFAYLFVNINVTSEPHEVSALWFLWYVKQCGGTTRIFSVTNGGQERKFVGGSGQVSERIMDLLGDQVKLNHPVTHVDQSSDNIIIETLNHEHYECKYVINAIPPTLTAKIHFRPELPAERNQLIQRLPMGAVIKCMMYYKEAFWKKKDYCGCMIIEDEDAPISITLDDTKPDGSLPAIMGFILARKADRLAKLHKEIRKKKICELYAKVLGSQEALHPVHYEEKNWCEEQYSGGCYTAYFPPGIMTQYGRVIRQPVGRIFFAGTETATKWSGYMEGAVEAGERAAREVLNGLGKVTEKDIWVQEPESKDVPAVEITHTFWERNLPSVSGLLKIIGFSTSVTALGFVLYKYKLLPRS
Protocol: The final compounds were evaluated in vitro for their human MAO-B (hMAO-B) inhibitory potencies, and selected structures were also investigated for human MAO-A (hMAO-A) inhibition.
Inhibition activity of compounds at MAO enzyme isoforms was measured via a fluorometric method using the Amplex Red Monoamine Oxidase Assay (ThermoFisher Scientific, Waltham, MA, USA #A12214) in a 96-well plates. Human recombinant MAO-B and MAO-A enzymes (Sigma Aldrich, St. Louis, MO, USA #M7441 and #M7316) were used. The assays were conducted as previously described.

| SMILES | Ki (rat A2A (rA2A) ARs) | Ki (human A2B (hA2B) ARs) | inhibition at 1 µM (human A2B (hA2B) ARs) | IC50 (human MAO-A) | inhibition at 1 µM (human MAO-A) | Antioxidative Activity [% of Quercetin Response at 50 µM ± SD] (DPPH antioxidant assay) |
| --- | --- | --- | --- | --- | --- | --- |
| Cn1c(=O)c2c(nc(NCCc3ccc(O)c(O)c3)n2C)n(C)c1=O [Compound 11a, 8-((3,4-Dihydroxyphenethyl)amino)-1,3,7-trimethyl-3,7-dihydro-1H-purine-2,6-dione] | 370 ± 63 nM | > 1000 nM | 20% | > 1000 nM | 44% | 79 ± 1 % of Quercetin Response |
| CC(C)n1c(NCCc2ccc(O)c(O)c2)nc2c1c(=O)n(C)c(=O)n2C [Compound 11d, 8-((3,4-Dihydroxyphenethyl)amino)-7-isopropyl-1,3-dimethyl-3,7-dihydro-1H-purine-2,6-dione] | 1150 ± 140 nM | > 1000 nM | 13% | ≥ 1000 nM | 47% | 87 ± 1 % of Quercetin Response |
| CCC(C)n1c(NCCc2ccc(O)c(O)c2)nc2c1c(=O)n(C)c(=O)n2C (stereo not shown) [Compound 11g, 7-(Sec-butyl)-8-((3,4-dihydroxyphenethyl)amino)-1,3-dimethyl-3,7-dihydro-1H-purine-2,6-dione] | 8980 ± 150 nM | > 1000 nM | -5% | > 1000 nM | 44% | 71 ± 1 % of Quercetin Response |
| CCCCCn1c(NCCc2ccc(O)c(O)c2)nc2c1c(=O)n(C)c(=O)n2C [Compound 11h, 8-((3,4-Dihydroxyphenethyl)amino)-1,3-dimethyl-7-pentyl-3,7-dihydro-1H-purine-2,6-dione] | 2220 ± 260 nM | > 1000 nM | 12% | 692 ± 7 nM |  | 79 ± 1 % of Quercetin Response |
| CCCCCCn1c(NCCc2ccc(O)c(O)c2)nc2c1c(=O)n(C)c(=O)n2C [Compound 11i, 8-((3,4-Dihydroxyphenethyl)amino)-7-hexyl-1,3-dimethyl-3,7-dihydro-1H-purine-2,6-dione] | > 10000 nM | > 1000 nM | 31% | 246 ± 72 nM |  | 26 ± 1 % of Quercetin Response |
| Cn1c(=O)c2c(nc(NCCc3ccc(O)c(O)c3)n2Cc2ccccc2)n(C)c1=O [Compound 11j, 7-Benzyl-8-((3,4-dihydroxyphenethyl)amino)-1,3-dimethyl-3,7-dihydro-1H-purine-2,6-dione] | 3600 ± 290 nM | > 1000 nM | 31% | 576 ± 68 nM |  | 82 ± 1 % of Quercetin Response |
| Cn1c(=O)c2c(nc(NCCc3ccc(O)c(O)c3)n2CCc2ccccc2)n(C)c1=O [Compound 11k, 8-((3,4-Dihydroxyphenethyl)amino)-1,3-dimethyl-7-phenethyl-3,7-dihydro-1H-purine-2,6-dione] | ≥ 10000 nM | > 1000 nM | -9% | 256 ± 93 nM |  | 73 ± 3 % of Quercetin Response |
| Cn1c(=O)c2c(nc(NCCc3ccc(O)c(O)c3)n2CCOc2ccccc2)n(C)c1=O [Compound 11l, 8-((3,4-Dihydroxyphenethyl)amino)-1,3-dimethyl-7-(2-phenoxyethyl)-3,7-dihydro-1H-purine-2,6-dione] | 1380 ± 120 nM | > 1000 nM | 22% | > 1000 nM | 41% | 26 ± 3 % of Quercetin Response |
| CCCn1c(=O)c2c(nc(NCCc3ccc(O)c(O)c3)n2CCC)n(CCC)c1=O [Compound 12, 8-((3,4-Dihydroxyphenethyl)amino)-1,3,7-tripropyl-3,7-dihydro-1H-purine-2,6-dione] | 833 ± 81 nM | > 1000 nM | 34% | ~1000 nM | 57% | 86 ± 3 % of Quercetin Response |
| CCCCn1c(=O)c2c(nc(NCCc3ccc(O)c(O)c3)n2CCC)n(CCCC)c1=O [Compound 13, 1,3-Dibutyl-8-((3,4-dihydroxyphenethyl)amino)-7-propyl-3,7-dihydro-1H-purine-2,6-dione] | 1320 ± 250 nM | > 1000 nM | 31% | > 1000 nM | 36% | 61 ± 1 % of Quercetin Response |

Second part, led by results:

| Ki (rat A2A (rA2A) ARs) | Ki (human A2B (hA2B) ARs) | inhibition at 1 µM (human A2B (hA2B) ARs) | IC50 (human MAO-A) | inhibition at 1 µM (human MAO-A) | SMILES | Antioxidative Activity [% of Quercetin Response at 50 µM ± SD] (DPPH antioxidant assay) |
| --- | --- | --- | --- | --- | --- | --- |
| 672 ± 83 nM | > 1000 nM | -2% | 891 ± 63 nM |  | CCn1c(NCCc2ccc(O)c(O)c2)nc2c1c(=O)n(C)c(=O)n2C [Compound 11b, 8-((3,4-Dihydroxyphenethyl)amino)-7-ethyl-1,3-dimethyl-3,7-dihydro-1H-purine-2,6-dione] | 75 ± 1 % of Quercetin Response |
| 4720 ± 930 nM | > 1000 nM | 6% | > 1000 nM | 33% | CCCn1c(NCCc2ccc(O)c(O)c2)nc2c1c(=O)n(C)c(=O)n2C [Compound 11c, 8-((3,4-Dihydroxyphenethyl)amino)-1,3-dimethyl-7-propyl-3,7-dihydro-1H-purine-2,6-dione] | 69 ± 1 % of Quercetin Response |
| 1700 ± 260 nM | > 1000 nM | 14% | > 1000 nM | 38% | CCCCn1c(NCCc2ccc(O)c(O)c2)nc2c1c(=O)n(C)c(=O)n2C [Compound 11e, 7-Butyl-8-((3,4-dihydroxyphenethyl)amino)-1,3-dimethyl-3,7-dihydro-1H-purine-2,6-dione] | 75 ± 1 % of Quercetin Response |
| 6860 ± 770 nM | > 1000 nM | 1% | > 1000 nM | 42% | CC(C)Cn1c(NCCc2ccc(O)c(O)c2)nc2c1c(=O)n(C)c(=O)n2C [Compound 11f, 8-((3,4-Dihydroxyphenethyl)amino)-7-isobutyl-1,3-dimethyl-3,7-dihydro-1H-purine-2,6-dione] | 57 ± 1 % of Quercetin Response |
